Data: patent US10336762B2 (priority 2017, dated 2019)
Like-named read-outs stand apart in the source and are kept apart here.

Tests used:
[1] = molecular target: IRAK4 enzyme (Homo sapiens (Human), UniProt Q9NWZ3); assay: biochemical; format: biochemical; conditions: IRAK4 enzyme, 500 μM ATP
[2] = test system: TNFα; assay: cells; format: cell-based, human; conditions: Homo sapiens, Monocyte, LPS-stimulated human monocytes, read-out: EC50 TNF

IRAK4 enzyme, sequence (Q9NWZ3 whole entry): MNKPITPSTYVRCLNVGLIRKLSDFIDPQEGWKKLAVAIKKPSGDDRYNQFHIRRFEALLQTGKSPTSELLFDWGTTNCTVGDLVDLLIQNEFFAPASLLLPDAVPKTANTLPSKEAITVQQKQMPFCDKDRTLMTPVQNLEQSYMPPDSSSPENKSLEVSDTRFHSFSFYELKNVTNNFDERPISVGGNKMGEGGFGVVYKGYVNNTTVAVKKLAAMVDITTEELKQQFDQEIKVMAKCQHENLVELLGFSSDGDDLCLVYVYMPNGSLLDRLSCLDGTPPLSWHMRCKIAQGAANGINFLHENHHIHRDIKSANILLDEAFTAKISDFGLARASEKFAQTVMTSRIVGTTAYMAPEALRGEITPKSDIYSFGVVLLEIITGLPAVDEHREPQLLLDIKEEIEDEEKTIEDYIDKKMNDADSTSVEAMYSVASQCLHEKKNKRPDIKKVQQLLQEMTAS

`CC(C)Nc1cc(-c2ccc3cc(C#N)cnn23)ncc1C(=O)NCCS(N)(=O)=O` [Example 20, 6-(3-cyanopyrrolo[1,2-b]pyridazin-7-yl)-4-(isopropyl-amino)-N-(2-sulfamoylethyl)nicotinamide] showed an IC50 ([1]; TR-FRET) of 2 nM and an EC50 ([2]; TNFα content) of 128 nM.

Work on `CC(C)(O)[C@H](F)CNC(=O)c1cnc(-c2ccc3cc(C#N)cnn23)cc1Nc1cnn(-c2ccccn2)c1` [Example 755, (R)-6-(3-cyanopyrrolo[1,2-b]pyridazin-7-yl)-N-(2-fluoro-3-hydroxy-3-methylbutyl)-4-((1-(pyridin-2-yl)-1H-pyrazol-4-yl)amino)nicotinamide] yielded an IC50 ([1]; TR-FRET (HTRF)) of 1 nM and an EC50 ([2]; TNFα content) of 16 nM.

For `CC(C)(O)[C@H](F)CNC(=O)c1cnc(-c2ccc3cc(C#N)cnn23)cc1NC12CCC(C(=O)N3CC(C(F)F)C3)(CC1)CC2` [Example 393, (R)-6-(3-cyanopyrrolo[1,2-b]pyridazin-7-yl)-4-((4-(3-(difluoromethyl)azetidine-1-carbonyl)bicyclo[2.2.2]octan-1-yl)amino)-N-(2-fluoro-3-hydroxy-3-methylbutyl)nicotinamide], the IC50 ([1]; TR-FRET) was < 1 nM and the EC50 ([2]; TNFα content) was 44 nM.

In the case of `CCCOc1cncc(Nc2cc(-c3ccc4cc(C#N)cnn34)ncc2C(=O)NC[C@@H](F)C(C)(C)O)c1` [Example 849, (R)-6-(3-cyanopyrrolo[1,2-b]pyridazin-7-yl)-N-(2-fluoro-3-hydroxy-3-methylbutyl)-4-((5-propoxy-pyridin-3-yl)amino) nicotinamide], the IC50 ([1]; TR-FRET) is reported as < 1 nM and the EC50 ([2]; TNFα by TR-FRET) is reported as 11 nM.

For `CC(C)(O)[C@H](F)CNC(=O)c1cnc(-c2ccc3cc(C#N)cnn23)cc1Nc1ccc(N2CCCC2)nc1` [Example 877, (R)-6-(3-cyano-pyrrolo[1,2-b]pyridazin-7-yl)-N-(2-fluoro-3-hydroxy-3-methylbutyl)-4-((6-(pyrrolidin-1-yl)pyridin-3-yl)amino) nicotinamide], the IC50 ([1]; TR-FRET) was 2 nM and the EC50 ([2]; TNFα by TR-FRET) was 46 nM.

`Cc1nnc(Nc2cc(-c3ccc4cc(C#N)cnn34)ncc2C(=O)NC[C@@H](F)C(C)(C)O)s1` [Example 146, (R)-6-(3-cyanopyrrolo[1,2-b]pyridazin-7-yl)-N-(2-fluoro-3-hydroxy-3-methylbutyl)-4-((5-methyl-1,3,4-thiadiazol-2-yl)amino)nicotinamide] was tested, and the IC50 ([1]; TR-FRET) was 1 nM and the EC50 ([2]; TNFα content) was 117 nM.

Work on `CC(C)(O)[C@H](F)CNC(=O)c1cnc(-c2ccc3cc(C#N)cnn23)cc1NC12CCC(C(F)F)(CC1)CC2` [Example 537, (R)-6-(3-cyanopyrrolo[1,2-b]pyridazin-7-yl)-4-((4-(difluoromethyl)bicyclo[2.2.2]octan-1-yl)amino)-N-(2-fluoro-3-hydroxy-3-methylbutyl)nicotinamide] yielded an IC50 ([1]; TR-FRET (HTRF)) of 1 nM and an EC50 ([2]; TNFα content) of 18 nM.

In the case of `N#CCCNC(=O)c1cnc(-c2ccc3cc(C#N)cnn23)cc1NC12CCC(O)(CC1)CC2` [Example 352, N-(2-cyanoethyl)-6-(3-cyanopyrrolo[1,2-b]pyridazin-7-yl)-4-((4-hydroxybicyclo[2.2.2]octan-1-yl)amino) nicotinamide], the IC50 ([1]; TR-FRET) is reported as 1 nM and the EC50 ([2]; TNFα content) is reported as 76 nM.

With `N#CCNC(=O)c1cnc(-c2ccc3cc(C#N)cnn23)cc1N[C@H]1CC[C@H](N2CCOC2=O)CC1` [Example 391, N-(cyanomethyl)-6-(3-cyanopyrrolo[1,2-b]pyridazin-7-yl)-4-(((1r,4r)-4-(2-oxooxazolidin-3-yl)cyclohexyl)amino) nicotinamide] the IC50 ([1]; TR-FRET) was < 1 nM and the EC50 ([2]; TNFα content) was 33 nM.

`CC(C)(O)[C@H](F)CNC(=O)c1cnc(-c2ccc3cc(C#N)cnn23)cc1Nc1ccc(N)nc1` [Example 657, (R)-4-((6-aminopyridin-3-yl)amino)-6-(3-cyano-pyrrolo[1,2-b]pyridazin-7-yl)-N-(2-fluoro-3-hydroxy-3-methylbutyl)nicotinamide] was tested, and the IC50 ([1]; TR-FRET (HTRF)) was < 1 nM and the EC50 ([2]; TNFα content) was 23 nM.

`CN(C)C(=O)NC[C@H]1C[C@H](Nc2cc(-c3ccc4cc(C#N)cnn34)ncc2C(=O)NC[C@@H](F)C(C)(C)O)C1` [Example 541, 6-(3-cyanopyrrolo[1,2-b]pyridazin-7-yl)-4-(((1r,3R)-3-((3,3-dimethyl-ureido)methyl)cyclobutyl)amino)-N-((R)-2-fluoro-3-hydroxy-3-methylbutyl) nicotinamide] was tested, and the IC50 ([1]; TR-FRET (HTRF)) was < 1 nM and the EC50 ([2]; TNFα content) was 65 nM.

`CNC(=O)O[C@H]1C[C@@H](Nc2cc(-c3ccc4cc(C#N)cnn34)ncc2C(=O)NC[C@@H](F)C(C)(C)O)C1` [Example 351, (1S,3S)-3-((2-(3-cyanopyrrolo[1,2-b]pyridazin-7-yl)-5-(((R)-2-fluoro-3-hydroxy-3-methylbutyl)carbamoyl)pyridin-4-yl)amino)cyclobutyl methylcarbamate] was tested, and the IC50 ([1]; TR-FRET) was 2 nM and the EC50 ([2]; TNFα content) was 120 nM.

`Cn1cncc1-c1ccc(Nc2cc(-c3ccc4cc(C#N)cnn34)ncc2C(=O)NC[C@@H](F)C(C)(C)O)cc1` [Example 210, (R)-6-(3-cyanopyrrolo[1,2-b]pyridazin-7-yl)-N-(2-fluoro-3-hydroxy-3-methylbutyl)-4-((4-(1-methyl-1H-imidazol-5-yl)phenyl)amino) nicotinamide] was tested, and the IC50 ([1]; TR-FRET) was < 1 nM and the EC50 ([2]; TNFα content) was 39 nM.

In the case of `CC1(O)CN(C(=O)CNC(=O)c2cnc(-c3ccc4cc(C#N)cnn34)cc2NC23CCC(O)(CC2)CC3)C1` [Example 954, 6-(3-cyanopyrrolo[1,2-b]pyridazin-7-yl)-N-(2-(3-hydroxy-3-methylazetidin-1-yl)-2-oxoethyl)-4-((4-hydroxybicyclo[2.2.2]octan-1-yl)amino) nicotinamide], the IC50 ([1]; TR-FRET) is reported as < 1 nM and the EC50 ([2]; TNFα by TR-FRET) is reported as 213 nM.

Compound `CNC(=O)c1cnc(-c2ccc3cc(C#N)cnn23)cc1NC12CCC(C(=O)NC3CC3)(CC1)CC2` [Example 481, 6-(3-cyanopyrrolo[1,2-b]pyridazin-7-yl)-4-((4-(cyclopropylcarbamoyl)bicyclo[2.2.2]octan-1-yl)amino)-N-methylnicotinamide] has an IC50 ([1]; TR-FRET (HTRF)) of 2 nM and an EC50 ([2]; TNFα content) of 63 nM.

`CN1CCC(Nc2cc(-c3ccc4cc(C#N)cnn34)ncc2C(=O)NC[C@@H](F)C(C)(C)O)CC1=O` (stereo partly drawn) [Example 155, 6-(3-cyanopyrrolo[1,2-b]pyridazin-7-yl)-N-((R)-2-fluoro-3-hydroxy-3-methylbutyl)-4-((1-methyl-2-oxopiperidin-4-yl)amino) nicotinamide] showed an IC50 ([1]; TR-FRET) of 1 nM and an EC50 ([2]; TNFα content) of 150 nM.

In the case of `CC1(C)C(=O)Nc2ccc(Nc3cc(-c4ccc5cc(C#N)cnn45)ncc3C(=O)NC[C@@H](F)C(C)(C)O)cc21` [Example 653, (R)-6-(3-cyanopyrrolo[1,2-b]pyridazin-7-yl)-4-((3,3-dimethyl-2-oxoindolin-5-yl)amino)-N-(2-fluoro-3-hydroxy-3-methylbutyl) nicotinamide], the IC50 ([1]; TR-FRET (HTRF)) is reported as 3 nM and the EC50 ([2]; TNFα content) is reported as 201 nM.

`CC(=O)NC12CCC(Nc3cc(-c4ccc5cc(C#N)cnn45)ncc3C(=O)NC[C@@H](F)C(C)(C)O)(CC1)CC2` [Example 317, (R)-4-((4-acetamido-bicyclo[2.2.2]octan-1-yl)amino)-6-(3-cyano-pyrrolo[1,2-b]pyridazin-7-yl)-N-(2-fluoro-3-hydroxy-3-methylbutyl) nicotinamide] was tested, and the IC50 ([1]; TR-FRET) was < 1 nM and the EC50 ([2]; TNFα content) was 11 nM.

Compound `CC(C)(O)[C@H](F)CNC(=O)c1cnc(-c2ccc3cc(C#N)cnn23)cc1Nc1ncc(C#N)cn1` [Example 420, (R)-4-((5-cyanopyrimidin-2-yl)amino)-6-(3-cyano-pyrrolo[1,2-b]pyridazin-7-yl)-N-(2-fluoro-3-hydroxy-3-methylbutyl)nicotinamide] has an IC50 ([1]; TR-FRET (HTRF)) of 6 nM and an EC50 ([2]; TNFα content) of 122 nM.

`N#Cc1cnn2c(-c3cc(NC45CCC(O)(CC4)CC5)c(C(=O)N[C@H]4CCCNC4=O)cn3)ccc2c1` [Example 957, (S)-6-(3-cyanopyrrolo[1,2-b]pyridazin-7-yl)-4-((4-hydroxybicyclo[2.2.2]octan-1-yl)amino)-N-(2-oxo-piperidin-3-yl)nicotinamide] was tested, and the IC50 ([1]; TR-FRET) was < 1 nM and the EC50 ([2]; TNFα by TR-FRET) was 173 nM.

For `CC(C)(O)[C@H](F)CNC(=O)c1cnc(-c2ccc3cc(C#N)cnn23)cc1N[C@H]1C[C@H](CNC(=O)OCC(F)F)C1` [Example 728, 2,2-difluoroethyl (((1R,3r)-3-((2-(3-cyanopyrrolo[1,2-b]pyridazin-7-yl)-5-(((R)-2-fluoro-3-hydroxy-3-methylbutyl)carbamoyl)pyridin-4-yl)amino)cyclo-butyl)methyl)carbamate], the IC50 ([1]; TR-FRET (HTRF)) was < 1 nM and the EC50 ([2]; TNFα content) was 4 nM.

In the case of `CC(C)(O)[C@H](F)CNC(=O)c1cnc(-c2ccc3cc(C#N)cnn23)cc1Nc1cnc(N)nc1` [Example 658, (R)-4-((2-aminopyrimidin-5-yl)amino)-6-(3-cyano-pyrrolo[1,2-b]pyridazin-7-yl)-N-(2-fluoro-3-hydroxy-3-methylbutyl)nicotinamide], the IC50 ([1]; TR-FRET (HTRF)) is reported as < 1 nM and the EC50 ([2]; TNFα content) is reported as 37 nM.

With `CC(C)(O)[C@H](F)CNC(=O)c1cnc(-c2ccc3cc(C#N)cnn23)cc1Nc1cnn([C@H]2CCNC2)c1` [Example 223, 6-(3-cyanopyrrolo[1,2-b]pyridazin-7-yl)-N-((R)-2-fluoro-3-hydroxy-3-methylbutyl)-4-((1-((S)-pyrrolidin-3-yl)-1H-pyrazol-4-yl)amino) nicotinamide] the IC50 ([1]; TR-FRET) was < 1 nM and the EC50 ([2]; TNFα content) was 13 nM.

With `CC(C)(O)[C@H](F)CNC(=O)c1cnc(-c2ccc3cc(C#N)cnn23)cc1NC1CCC(=O)NC1` (stereo partly drawn) [Example 367, 6-(3-cyanopyrrolo[1,2-b]pyridazin-7-yl)-N-((R)-2-fluoro-3-hydroxy-3-methylbutyl)-4-((6-oxopiperidin-3-yl)amino)nicotinamide] the IC50 ([1]; TR-FRET) was 3 nM and the EC50 ([2]; TNFα content) was 1560 nM.

For `CC(C)Nc1cc(-c2ccc3cc(C#N)cnn23)ncc1C(=O)NC12CC(C#N)(C1)C2` [Example 380, N-(3-cyanobicyclo[1.1.1]pentan-1-yl)-6-(3-cyano-pyrrolo[1,2-b]pyridazin-7-yl)-4-(isopropylamino) nicotinamide], the IC50 ([1]; TR-FRET) was 15 nM and the EC50 ([2]; TNFα content) was 773 nM.

`N#Cc1cnn2c(-c3cc(NC45CCC(O)(CC4)CC5)c(C(=O)NCc4ccc[nH]c4=O)cn3)ccc2c1` [Example 624, 6-(3-cyanopyrrolo[1,2-b]pyridazin-7-yl)-4-((4-hydroxybicyclo[2.2.2]octan-1-yl)amino)-N-((2-oxo-1,2-dihydro-pyridin-3-yl)methyl) nicotinamide] was tested, and the IC50 ([1]; TR-FRET (HTRF)) was 3 nM and the EC50 ([2]; TNFα content) was 1640 nM.
